Source: patent publication US7550469B2, “Heterocyclic amide derivatives and their use as dopamine D3 receptor ligands” (Aventis Pharmaceuticals Inc., priority 2001, dated 2009)
Like-named read-outs stand apart in the source and are kept apart here. Each block holds one molecule with its values, some of them ahead of it.

Target: T1, cloned human dopamine D3 receptors (Homo sapiens, UniProt P35462)
T1 construct: expressed in transfected cells; membrane homogenate
Experiment: [N-Methyl-3H]Spiroperidol binding to cloned human dopamine D3 receptors (Protocol 1)
In short: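 Membranes from CHO cells stably expressing cloned human D3 receptor were used for [N-methyl-3H]spiroperidol (60-90 Ci/mmol) binding. Assay buffer was 0.05 M Tris HCl pH 7.7 with 120 mM NaCl, 5 mM KCl, 2 mM CaCl2 and 1 mM MgCl2, optionally 0.1% ascorbic acid; total ligand concentration calculated from added CPM.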

[1] = the 18th table, read-out: D3 Ki
[2] = the 23rd table, read-out: D3 Ki
[3] = the 22nd table, read-out: D3 Ki
[4] = the 13th table, unit inferred, read-out: D3Ki
[5] = the 21st table, read-out: D3 Ki
[6] = the 14th table, read-out: D3 Ki
[7] = the 16th table, read-out: D3 Ki
[8] = the 19th table, read-out: D3 Ki
[9] = the 17th table, read-out: D3 Ki

T1 sequence (P35462 whole entry): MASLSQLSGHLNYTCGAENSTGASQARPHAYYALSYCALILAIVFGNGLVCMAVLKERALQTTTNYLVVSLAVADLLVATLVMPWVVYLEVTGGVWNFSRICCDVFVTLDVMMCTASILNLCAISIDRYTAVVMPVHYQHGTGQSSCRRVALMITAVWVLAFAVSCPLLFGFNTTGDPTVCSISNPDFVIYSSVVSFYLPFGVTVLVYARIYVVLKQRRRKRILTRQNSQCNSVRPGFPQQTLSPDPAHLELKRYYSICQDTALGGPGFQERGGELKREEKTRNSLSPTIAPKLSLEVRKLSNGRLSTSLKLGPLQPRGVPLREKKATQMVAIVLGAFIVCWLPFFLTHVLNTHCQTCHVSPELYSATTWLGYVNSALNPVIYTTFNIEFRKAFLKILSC

Ki (read-out: D3K1): 24 nM
Compound: O=C(NC/C=C/CN1CCN(c2csc3cc(C(F)(F)F)ccc23)CC1)c1ccccc1 [compound 827715]

Ki [5]: 219 nM
Compound: Cc1ccccc1C(=O)NCCCCN1[C@H](C)CN(c2csc3cc(C(F)(F)F)ccc23)C[C@@H]1C [compound 826931]

Ki (read-out: D3K1): 3.2 nM
Ki [6]: 3.2 nM
Compound: O=C(NCCCCCCN1CCN(c2csc3cc(C(F)(F)F)ccc23)CC1)c1cc2ccccc2s1 [compound 826754]

Ki (read-out: D3K1): 150 nM
Ki [6]: 150 nM
Compound: COc1ccc(C(=O)N[C@@H](CO)CCCN2CCN(c3csc4cc(C(F)(F)F)ccc34)CC2)cc1 [compound 815668]

Ki (Table 2, read-out: D3K1): 218 nM
Compound: CC1=C(C(=O)NCC(CO)CCN2CCN(c3csc4cc(C(F)(F)F)ccc34)CC2)Cc2ccccc21 (centres unmarked) [818934ES]

Ki (Table 2, read-out: D3K1): 4.74 nM
Ki [7]: 4.74 nM
Compound: CN(C)c1ccccc1C(=O)NCCCCN1CCCN(c2csc3cc(F)ccc23)CC1 [compound 817269]

Ki (Table 2, read-out: D3K1): 158 nM
Compound: O=C(NCC(CO)CCN1CCN(c2csc3cc(C(F)(F)F)ccc23)CC1)c1cn[nH]c1 (centres unmarked) [818928ES]

Ki [2]: 54.9 nM
Compound: FC(F)(F)Oc1cccc(CNC[C@@H]2C[C@H]2CN2CCN(c3csc4cc(C(F)(F)F)ccc34)CC2)c1 [compound 833067]

Ki (Table 2, read-out: D3K1): 24.4 nM
Compound: COc1ccc(/C=C/C(=O)NC/C=C\CN2CCN(c3csc4cc(C(F)(F)F)ccc34)CC2)cc1 [compound 827735]

Ki [4]: 4.12 nM
Compound: O=C(NCCCCN1CCCN(c2csc3cc(F)ccc23)CC1)c1c[nH]c2ccccc12 [S977822]

Ki (read-out: D3K1): 87 nM
Compound: CC1(C)C(CNC(=O)c2cccc(C(F)(F)F)c2)C1CN1CCN(c2csc3cc(C(F)(F)F)ccc23)CC1 (centres unmarked) [compound 826278]

Ki (Table 2, read-out: D3K1): 190 nM
Ki (read-out: D3K1): 190 nM
Ki [6]: 190 nM
Compound: O=C(NC(CO)CCCN1CCN(c2csc3cc(C(F)(F)F)ccc23)CC1)c1ccccc1C(F)(F)F (centres unmarked) [compound 815688]

Ki (Table 2, read-out: D3K1): 124 nM
Ki (read-out: D3K1): 124 nM
Ki [6]: 124 nM
Compound: O=C(N[C@H](CO)CCCN1CCN(c2csc3cc(C(F)(F)F)ccc23)CC1)c1ccc2c(c1)S(=O)(=O)c1ccccc1C2=O [compound 815709]

Ki (read-out: D3K1): 23 nM
Compound: O=C(NCCCCN1CCN(c2csc3cc(C(F)(F)F)ccc23)CC1)c1ccccc1Br [compound 815558]

Ki (read-out: D3K1): 6.9 nM
Compound: COc1ccc(C(=O)NCCCCN2CCN(c3csc4cc(C(F)(F)F)ccc34)CC2)cc1OC [compound 815550]

Ki [4]: 39 nM
Compound: COc1ccc(C(=O)NCCCCN2CCCN(c3csc4cc(C(F)(F)F)ccc34)CC2)cc1OC [S980638]

Ki [4]: 54 nM
Compound: O=C(NCCCCN1CCCN(c2csc3cc(C(F)(F)F)ccc23)CC1)c1ccc2[nH]ccc2c1 [S980651]

Ki [4]: 2.2 nM
Compound: O=C(NCCCCN1CCCN(c2csc3cc(F)ccc23)CC1)c1ccc(-c2ccccc2F)cc1 [S981842]

Ki [4]: 40 nM
Compound: O=C(NCCCCN1CCCN(c2csc3cc(C(F)(F)F)ccc23)CC1)c1cccs1 [S980627]

Ki [4]: 43 nM
Compound: O=C(NCCCCN1CCCN(c2csc3cc(C(F)(F)F)ccc23)CC1)c1ccc(F)cc1 [S980637]

Ki (read-out: D3K1): 23 nM
Ki [6]: 23 nM
Compound: O=C(NCCCCCN1CCN(c2csc3cc(C(F)(F)F)ccc23)CC1)c1cccc(Cl)c1 [compound 826765]

Ki [4]: 10.8 nM
Compound: O=C(NCCCCN1CCCN(c2csc3cc(F)ccc23)CC1)c1cccc(C(F)(F)F)c1 [compound 822155]

Ki (Table 2, read-out: D3K1): 210 nM
Ki (read-out: D3K1): 210 nM
Ki [6]: 210 nM
Compound: O=C(N[C@H](CO)CCCN1CCN(c2csc3cc(C(F)(F)F)ccc23)CC1)c1cc2ccc(Cl)cc2s1 [compound 815710]

Ki (Table 2, read-out: D3K1): 32.9 nM
Ki [7]: 32.9 nM
Compound: O=C(NCCCCN1CCCN(c2csc3cc(F)ccc23)CC1)c1cc2cccc(F)c2o1 [compound 827120]

Ki (Table 2, read-out: D3K1): 294 nM
Ki (read-out: D3K1): 294 nM
Ki [6]: 294 nM
Compound: O=C(N[C@H](CO)CCCN1CCN(c2csc3cc(C(F)(F)F)ccc23)CC1)c1ccc2ccccc2c1 [compound 815697]

Ki (read-out: D3K1): 23 nM
Ki [6]: 23 nM
Compound: O=C(NCCCCCN1CCN(c2csc3cc(C(F)(F)F)ccc23)CC1)c1cccc2ccccc12 [compound 826768]

Ki [4]: 175 nM
Compound: Cc1nn(-c2ccccc2)nc1C(=O)NCCCCN1CCCN(c2csc3cc(C(F)(F)F)ccc23)CC1 [S980657]

Continued, molecule first:

Compound: O=C(NCc1sccc1CN1CCN(c2csc3cc(F)ccc23)CC1)c1ccc(-c2ccccc2)cc1 [compound 826308]
Ki [1]: 206 nM

Compound: CC1CCCCN1CCCNC[C@@H]1C[C@H]1CN1CCN(c2csc3cc(C(F)(F)F)ccc23)CC1 (mixture of isomers) [compound 832277]
Ki [2]: 29.4 nM

Compound: O=C(NCCCCN1CCN(c2nn(C(=O)c3ccc(F)c(F)c3)c3ccsc23)CC1)c1ccc(F)c(F)c1 [compound 825150]
Ki [3]: 199 nM

Compound: O=C(NCCCCN1CCCN(c2csc3cc(F)ccc23)CC1)c1cc(Cl)ccc1[N+](=O)[O-] [S982540]
Ki [4]: 1.2 nM

Compound: Cc1ccc(C(=O)NCCCCN2CCN(c3nn(C(=O)c4ccc(C)cc4)c4ccsc34)CC2)cc1 [compound 825147]
Ki [3]: 62.7 nM

Compound: CCOc1ccc(C(=O)NCCCCCN2CCC(c3noc4ccsc34)CC2)cc1 [compound 816198]
Ki [4]: 110 nM

Compound: O=C(NCC1CC1CN1CCC(c2noc3ccsc23)CC1)Oc1ccc(F)cc1 (centres unmarked) [compound 831697]
Ki (D3 Ki (nM), the 25th table): 8.35 nM

Compound: C[C@@H]1CN(c2csc3cc(C(F)(F)F)ccc23)C[C@H](C)N1CCCCNC(=O)c1ccc2ccccc2c1 [compound 827042]
Ki [5]: 112 nM

Compound: O=C(NCCCCN1CCN(c2c(-c3ccccc3)sc3cc(F)ccc23)CC1)c1ccc(Cl)cc1 [compound 815880]
Ki (Table 2, read-out: D3K1): 837 nM

Compound: CN(C)c1cccc(C(=O)NCCCCN2CCCN(c3csc4cc(F)ccc34)CC2)c1 [compound 817268]
Ki (Table 2, read-out: D3K1): 7.1 nM
Ki [7]: 7.1 nM

Compound: CCCCOc1ccc(C(=O)NCCCCN2CCN(c3c(Cl)sc4cc(C(F)(F)F)ccc34)CC2)cc1 [compound 815564]
Ki (read-out: D3K1): 159 nM

Compound: O=C(NCCCCCN1CCN(c2csc3cc(F)ccc23)CC1)c1cccc(Cl)c1 [compound 826775]
Ki [6]: 6.24 nM

Compound: O=C(NCc1sccc1CN1CCN(c2csc3cc(F)ccc23)CC1)c1cccc(Cl)c1 [compound 826296]
Ki [1]: 106 nM

Compound: COc1ccc(C(=O)Nc2ccc(CN3CCN(c4csc5cc(F)ccc45)CC3)cc2)cc1OC [compound 822208]
Ki [8]: 183 nM

Compound: COc1ccc(C(=O)NCCCCN2[C@H](C)CN(c3csc4cc(F)ccc34)C[C@@H]2C)cc1OC [compound 826940]
Ki [5]: 49.2 nM

Compound: CCC1CCCC1NC[C@@H]1C[C@H]1CN1CCN(c2csc3cc(C(F)(F)F)ccc23)CC1 (mixture of isomers) [compound 832278]
Ki [2]: 19 nM

Compound: C[C@@H]1CN(c2csc3cc(C(F)(F)F)ccc23)C[C@H](C)N1CCCCNC(=O)c1ccc(-c2ccccc2)cc1 [compound 826933]
Ki [5]: 276 nM

Compound: O=C(NCCCCCN1CCCN(c2csc3cc(F)ccc23)CC1)c1cccc2ccccc12 [S984489]
Ki [4]: 41.5 nM

Compound: Cc1ccc(C(=O)NCC2CC2CN2CCCN(c3csc4cc(F)ccc34)CC2)cc1 (racemic) [compound 830403]
Ki [9]: 59.9 nM

Compound: CCCCc1ccc(C(=O)NCCCCCN2CCC(c3noc4ccsc34)CC2)cc1 [compound 816218]
Ki [4]: 316 nM

Compound: CC(C)(C)c1ccc(S(=O)(=O)NCC2CC2CN2CCN(c3csc4cc(C(F)(F)F)ccc34)CC2)cc1 (racemic) [compound 831591]
Ki (the 24th table, read-out: D3 Ki): 93.3 nM

Compound: O=C(Nc1cccc(CN2CCN(c3csc4cc(F)ccc34)CC2)c1)c1ccncc1 [compound 822185]
Ki [8]: 50.7 nM

Compound: O=C(NCCCCN1CCN(c2c(Cl)sc3cc(F)ccc23)CC1)c1ccccc1C(F)(F)F [compound 815065]
Ki (read-out: D3K1): 43.8 nM

Compound: COc1cc(OC)cc(C(=O)NCc2sccc2CN2CCN(c3csc4cc(F)ccc34)CC2)c1 [compound 826297]
Ki [1]: 31 nM

Compound: O=C(NCCCCN1CCN(c2noc3ccsc23)CC1)c1ccc(C(F)(F)F)cc1 [compound 829677]
Ki [3]: 96.6 nM

Compound: Cc1ccccc1C(=O)NCCCCN1[C@H](C)CN(c2csc3cc(F)ccc23)C[C@@H]1C [compound 826941]
Ki [5]: 36.3 nM

Compound: O=C(NCc1sccc1CN1CCN(c2csc3cc(F)ccc23)CC1)c1cc2ccccc2o1 [compound 826331]
Ki [1]: 51 nM

Compound: O=C(NCCCCN1CCCN(c2csc3cc(F)ccc23)CC1)c1cc(C(F)(F)F)cc(C(F)(F)F)c1 [S981844]
Ki [4]: 39 nM

Compound: Cc1nn(C)c2sc(C(=O)NCc3sccc3CN3CCN(c4csc5cc(F)ccc45)CC3)cc12 [compound 826321]
Ki [1]: 41.3 nM

Compound: CC(C)(C)c1cc(C(C)(C)C)c2oc(C(=O)NCCCCN3CCCN(c4csc5cc(F)ccc45)CC3)cc2c1 [compound 827132]
Ki (Table 2, read-out: D3K1): 129 nM
Ki [7]: 129 nM

Compound: Cc1oc(-c2ccc(Cl)cc2)cc1C(=O)NCCCCN1CCCN(c2csc3cc(F)ccc23)CC1 [S981840]
Ki [4]: 3.4 nM

Compound: O=C(NCCCCN1CCN(c2c(Cl)sc3cc(F)ccc23)CC1)C1CCCC1 [compound 815071]
Ki (read-out: D3K1): 7.2 nM

Compound: O=C(NCC1CC1CN1CCCN(c2csc3cc(F)ccc23)CC1)c1cc2ccccc2s1 (racemic) [compound 830407]
Ki [9]: 10.4 nM

Compound: O=C(NCc1sccc1CN1CCN(c2csc3cc(F)ccc23)CC1)c1n[nH]c2ccccc12 [compound 826329]
Ki [1]: 14 nM

Compound: O=C(NCCCCN1CCCN(c2csc3cc(F)ccc23)CC1)c1cc(F)cc(F)c1 [S981849]
Ki [4]: 5.03 nM

Compound: O=C(NCCCCCN1CCC(c2noc3ccsc23)CC1)c1ccccc1[N+](=O)[O-] [compound 816207]
Ki [4]: 182 nM

Compound: O=C(NCCCCCN1CCCN(c2csc3cc(F)ccc23)CC1)c1cnc(-c2cccnc2)s1 [S984497]
Ki [4]: 49.3 nM

Compound: CSc1ncccc1C(=O)NCCCCN1C2CCC1CC(c1noc3cc(F)ccc13)C2 (centres unmarked) [compound 816338]
Ki (the 15th table, read-out: D3 Ki): 692 nM

Compound: O=C(NCCCCCN1CCCN(c2csc3cc(F)ccc23)CC1)c1cccc2[nH]ccc12 [S984508]
Ki [4]: 34.8 nM

Compound: Cc1ccccc1C(=O)Nc1cccc(CN2CCN(c3csc4cc(F)ccc34)CC2)c1 [compound 822183]
Ki [8]: 154 nM
